The values below come from patent US12441742B2, “Naphthyridine compounds as inhibitors of KRAS” (Incyte Corporation, priority 2021, dated 2025).

The target of one test is KRAS G12D (Homo sapiens, UniProt P01116, G12D). Nature of the test: KRAS_G12D GDP-GTP exchange assay (bodipy-GDP/GppNHp, SOS1). The class given is biochemical. The following applies: bodipy-loaded KRAS G12D 2.5 nM, 4 hours pre-incubation, 2 hours exchange; for IC50: read-out: G12D_exchange (KRAS_G12D exchange assay IC50). How it is done:
(§1) The inhibitor potency of the exemplified compounds was determined in a fluorescence based guanine nucleotide exchange assay, which measures the exchange of bodipy-GDP (fluorescently labeled GDP) for GppNHp (Non-hydrolyzable GTP analog) to generate the active state of KRAS in the presence of SOS1 (guanine nucleotide exchange factor). Inhibitors were serially diluted in DMSO and a volume of 0.1 μL was transferred to the wells of a black low volume 384-well plate. 5 μL/well volume of bodipy-loaded KRAS G12D diluted to 2.5 nM in assay buffer (25 mM Hepes pH 7.5, 50 mM NaCl, 10 mM MgCl2 and 0.01% Brij-35) was added to the plate and pre-incubated with inhibitor for 4 hours at ambient temperature. Appropriate controls (enzyme with no inhibitor or with a G12D inhibitor) were included on the plate. The exchange was initiated by the addition of a 5 μL/well volume containing 1 mM GppNHp and 300 nM SOS1 in assay buffer. The 10 μL/well reaction concentration of the bodipy-loaded KRAS G12D, GppNHp, and SOS1 were 2.5 nM, 500 uM, and 150 nM, respectively. The reaction plates were incubated at ambient temperature for 2 hours, a time estimated for complete GDP-GTP exchange in the absence of inhibitor. For the KRAS G12V mutant, similar guanine nucleotide exchange assays were used with 2.5 nM as final concentration for the bodipy loaded KRAS proteins and 3 hours incubation after adding GppNHp-SOS1 mixture. A cyclic peptide described to selectively bind G12D mutant (Sakamoto et al., BBRC 484.3 (2017), 605-611) or internal compounds with confirmed binding were used as positive controls in the assay plates. Fluorescence intensities were measured on a PheraStar plate reader instrument (BMG Labtech) with excitation at 485 nm and emission at 520 nm.
(§2) Either GraphPad prism or XLfit was used to analyze the data. The IC50 values were derived by fitting the data to a four parameter logistic equation producing a sigmoidal dose-response curve with a variable Hill coefficient. Prism equation: Y=Bottom+(Top−Bottom)/(1+10^((Log IC50−X)*Hill slope)); XLfit equation: Y=(A+((B−A)/(1+((X/C)^D)))) where X is the logarithm of inhibitor concentration and Y is the response.

The next test has as its target KRAS G12V (Homo sapiens, UniProt P01116, G12V). Nature of the test: KRAS_G12V GDP-GTP exchange assay (bodipy-GDP/GppNHp, SOS1). The test is classed as biochemical. The following applies: bodipy loaded KRAS G12V 2.5 nM, 3 hours incubation after GppNHp-SOS1; read-out: G12V_exchange (KRAS_G12V exchange assay IC50). As for the experimental part: as §1, §2

KRAS G12D, sequence (P01116 1-188 isoform P01116-2 G12D): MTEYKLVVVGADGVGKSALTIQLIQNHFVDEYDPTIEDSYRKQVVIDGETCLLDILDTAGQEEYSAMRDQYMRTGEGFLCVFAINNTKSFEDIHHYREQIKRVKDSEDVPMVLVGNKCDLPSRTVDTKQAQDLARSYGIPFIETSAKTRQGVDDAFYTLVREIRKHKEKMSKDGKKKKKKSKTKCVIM
KRAS G12V, sequence (P01116 1-188 isoform P01116-2 G12V): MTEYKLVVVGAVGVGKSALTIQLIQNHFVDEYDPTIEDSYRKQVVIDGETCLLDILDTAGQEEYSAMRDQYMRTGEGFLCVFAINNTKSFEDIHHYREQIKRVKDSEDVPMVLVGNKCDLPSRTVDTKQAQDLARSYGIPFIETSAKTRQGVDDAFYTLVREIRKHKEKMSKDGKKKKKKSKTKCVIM

In general, IC50 refers to the midpoint of a concentration-inhibition curve. `Cc1nc2c(nc(N3CC(N(C)C)C3)c3nc(CCC(=O)N(C)C)n([C@@H]4[C@@H]5CN[C@H]4C5)c32)c(C)c1-c1cc(O)cc2ccccc12` (relative stereo) [Example 16, 3-(1-((endo)-2-azabicyclo[2.1.1]hexan-5-yl)-4-(3-(dimethylamino)azetidin-1-yl)-7-(3-hydroxynaphthalen-1-yl)-6,8-dimethyl-1H-imidazo[4,5-c][1,5]naphthyridin-2-yl)-N,N-dimethylpropanamide]: at KRAS G12D, the IC50 was 1000 to 5000 nM. Consider `Cc1cc2c(O[C@@H](C)[C@@H]3CCCN3C)nc3c(F)c(N4CCc5ccccc54)ncc3c2n1C1C2CNC1C2` (single isomer, unassigned) [Example 8a], for which the “G12D_exchange (KRAS_G12D exchange assay IC50)” value (“G12D_exchange” below) on KRAS G12D is recorded as “†”. The IC50 at KRAS G12V was 100 to 1000 nM. As for `CNC(=O)c1cccc(-c2nc3c(F)c(-c4cccc(C)c4Cl)ncc3c3c2cc([C@H]2CCCN2C(=O)OC)n3[C@H]2[C@H]3CN[C@@H]2C3)n1` [Example 24, Methyl (R)-2-(1-((1R,4R,5S)-2-azabicyclo[2.1.1]hexan-5-yl)-7-(2-chloro-3-methylphenyl)-6-fluoro-4-(6-(methylcarbamoyl)pyridin-2-yl)-1H-pyrrolo[3,2-c][1,6]naphthyridin-2-yl)pyrrolidine-1-carboxylate], on KRAS G12D, the “G12D_exchange” value is “†”. For the same compound, the IC50 on KRAS G12V was in the range of 5000 to 10000 nM.

Consider `Cc1nc2c(F)c(-c3cc(O)cc4ccccc34)ncc2c2c1cc(CN1CCOC1=O)n2[C@@H]1[C@@H]2CN[C@H]1C2` (relative stereo) [Example 5, 3-((1-((endo)-2-azabicyclo[2.1.1]hexan-5-yl)-6-fluoro-7-(3-hydroxynaphthalen-1-yl)-4-methyl-1H-pyrrolo[3,2-c][1,6]naphthyridin-2-yl)methyl)oxazolidin-2-one], for which the IC50 lay in the range of 100 to 1000 nM at KRAS G12D and 1000 to 5000 nM on KRAS G12V. On to `C[C@H](Oc1nc2c(F)c(-c3cccc4c3OCCC4)ncc2c2c1cc([C@@H](C)n1ccccc1=O)n2[C@H]1[C@H]2CN[C@@H]1C2)[C@@H]1CCCN1C` [Example 21, 1-((R)-1-(1-((1R,4R,5S)-2-Azabicyclo[2.1.1]hexan-5-yl)-7-(chroman-8-yl)-6-fluoro-4-((S)-1-((S)-1-methylpyrrolidin-2-yl)ethoxy)-1H-pyrrolo[3,2-c][1,6]naphthyridin-2-yl)ethyl)pyridin-2(1H)-one], for which the “G12D_exchange” value on KRAS G12D was “†”. The IC50 at KRAS G12V is at most 100 nM. Consider `COC(=O)N1CCC[C@@H]1c1cc2c(N3CC(C)(N(C)C)C3)nc3c(F)c(-c4cccc(Cl)c4Cl)ncc3c2n1[C@H]1[C@H]2CN[C@@H]1C2` [Example 22, Methyl (R)-2-(1-((1R,4R,5S)-2-azabicyclo[2.1.1]hexan-5-yl)-7-(2,3-dichlorophenyl)-4-(3-(dimethylamino)-3-methylazetidin-1-yl)-6-fluoro-1H-pyrrolo[3,2-c][1,6]naphthyridin-2-yl)pyrrolidine-1-carboxylate], for which the “G12D_exchange” value on KRAS G12D is on record as “†”. In addition, the IC50 on KRAS G12V was 100 to 1000 nM. Regarding `C[C@H](Oc1nc2c(F)c(-c3cc(O)cc4ccccc34)ncc2c2c1nc(CCC(=O)N(C)C)n2C1C2CNC1C2)[C@@H]1CCCN1C` (single isomer, unassigned) [Example 9b], on KRAS G12D, the “G12D_exchange” value is “†”. For the same compound, on KRAS G12V, the IC50 was at most 100 nM. As for `Cc1cc2c(O[C@@H](C)[C@@H]3CCCN3C)nc3c(F)c(N4CCc5ccccc54)ncc3c2n1C1C2CNC1C2` (single isomer, unassigned) [Example 8b], the figures for the IC50 at KRAS G12D and at KRAS G12V were 100 to 1000 nM and 1000 to 5000 nM, respectively. `CN(C)C(=O)CCc1nc2c(N3CC(N(C)C)C3)nc3c(F)c(-c4cccc5c4C(C#N)CC5)ncc3c2n1C1C2CNC1C2` (single isomer, unassigned) [Example 10b, 3-(1-((endo)-2-azabicyclo[2.1.1]hexan-5-yl)-7-(3-cyano-2,3-dihydro-1H-inden-4-yl)-4-(3-(dimethylamino)azetidin-1-yl)-6-fluoro-1H-imidazo[4,5-c][1,6]naphthyridin-2-yl)-N,N-dimethylpropanamide]: the IC50 at KRAS G12D lay within 1000 to 5000 nM. For the compound `C[C@H](Oc1nc2c(F)c(-c3cccc4c3OCCC4)ncc2c2c1cc(C1CCc3cccc(=O)n31)n2[C@H]1[C@H]2CN[C@@H]1C2)[C@@H]1CCCN1C` (single isomer, unassigned) [Example 20a], the “G12D_exchange” value at KRAS G12D is listed as “†”. Also, the IC50 on KRAS G12V was at most 100 nM. For `COC(=O)N1CCC[C@@H]1c1cc2c(O[C@@H](C)[C@@H]3CCCN3C)nc3c(F)c(-c4cccc(Cl)c4Cl)ncc3c2n1[C@H]1[C@H]2CN[C@@H]1C2` [Example 23, Methyl (R)-2-(1-((1R,4R,5S)-2-azabicyclo[2.1.1]hexan-5-yl)-7-(2,3-dichlorophenyl)-6-fluoro-4-((S)-1-((S)-1-methylpyrrolidin-2-yl)ethoxy)-1H-pyrrolo[3,2-c][1,6]naphthyridin-2-yl)pyrrolidine-1-carboxylate], the “G12D_exchange” value on KRAS G12D was “†”. In addition, the IC50 on KRAS G12V was at most 100 nM.

On to `C[C@H](Oc1nc2c(F)c(-c3c[nH]c4ccc(F)cc34)ncc2c2c1cc(CN1CCOC1=O)n2C1C2CNC1C2)[C@@H]1CCCN1C` (single isomer, unassigned) [Example 6a], for which the IC50 at KRAS G12D lay in the range of 100 to 1000 nM. `Cc1cc2c(O[C@@H](C)[C@@H]3CCCN3C)nc3c(F)c(-c4cc(O)cc5ccc(F)cc45)ncc3c2n1[C@H]1[C@H]2CN[C@@H]1C2` [Example 18, 4-(1-((1R,4R,5S)-2-Azabicyclo[2.1.1]hexan-5-yl)-6-fluoro-2-methyl-4-((S)-1-((S)-1-methylpyrrolidin-2-yl)ethoxy)-1H-pyrrolo[3,2-c][1,6]naphthyridin-7-yl)-6-fluoronaphthalen-2-ol]: the “G12D_exchange” value at KRAS G12D is given as “†”. For the same compound, the IC50 at KRAS G12V is at most 100 nM. For `CC(=O)N1CCC[C@@H]1c1cc2c(O[C@@H](C)[C@@H]3CCCN3C)nc3c(F)c(-c4cccc5scnc45)ncc3c2n1[C@H]1[C@H]2CN[C@@H]1C2` [Example 19, 1-((R)-2-(7-(Benzo[d]thiazol-4-yl)-1-((1R,4R,5S)-2-azabicyclo[2.1.1]hexan-5-yl)-6-fluoro-4-((S)-1-((S)-1-methylpyrrolidin-2-yl)ethoxy)-1H-pyrrolo[3,2-c][1,6]naphthyridin-2-yl)pyrrolidin-1-yl)ethan-1-one], the “G12D_exchange” value at KRAS G12D is recorded as “†”. The IC50 on KRAS G12V was at most 100 nM.

As to `CN(C)C(=O)CCc1nc2c(N3CC(N(C)C)C3)nc3cc(-c4cc(O)cc5ccccc45)c(CCC#N)nc3c2n1C1C2CNC1C2` (single isomer, unassigned) [Example 17a, 3-(1-((endo)-2-azabicyclo[2.1.1]hexan-5-yl)-8-(2-cyanoethyl)-4-(3-(dimethylamino)azetidin-1-yl)-7-(3-hydroxynaphthalen-1-yl)-1H-imidazo[4,5-c][1,5]naphthyridin-2-yl)-N,N-dimethylpropanamide], the “G12D_exchange” value at KRAS G12D was “†”. Further, at KRAS G12V, the concentration for half-maximal inhibition (IC50) is 1000 to 5000 nM.
